Measured values taken from ChEMBL document CHEMBL1136697, “3D-QSAR studies on thieno[3,2-d]pyrimidines as phosphodiesterase IV inhibitors” (Bioorg Med Chem Lett, 2003).

Target: Phosphodiesterase 4 (Cavia porcellus)
Test: Inhibitory activity against (PDE IV) phosphodiesterase IV in guinea pig articular tissue

Q: `c1ccc(CNc2nc(CN3CCCCC3)nc3ccsc23)cc1` was tested. Which IC50 did it give?
A: 65 µM

Q: With `c1ccc(CNc2nc(CCCCOc3ccccc3)nc3ccsc23)cc1` as the molecule, how does the IC50 read?
A: 4.7 µM

Q: For `CCCCc1nc(NCc2ccccc2)c2occc2n1`, which IC50 is on record?
A: 1.1 µM
